{"source": "patent US20140371137A1", "about": "“PREPARATION OF PNA-6-AMINOGLUCOSAMINE CONJUGATES AS ANTIVIRAL AGENTS” (priority 2013, published 2014)", "key": {"HCV 5'NTR RNA": {"tested_on": "HCV 5'NTR RNA", "assay": "Gel electrophoretic mobility shift analysis (EMSA) of PNA-glucosamine conjugate binding to HCV 5'NTR RNA transcript", "conditions": "for gel retardation of the labeled RNA: 20 nM HCV 5'NTR RNA transcript", "description": "FIG. 10. Stoichiometry of binding of PNA-glucosamine conjugate to its target sequence: (A) The PCR product corresponding to domains III and IV of 5′NTR and the 36 nucleotide of the N-terminal coding sequence of the HCV core were transcribed to generate 244-base runoff transcripts using a T7 transcription kit from Roche Applied Sciences. The 20 nM of internally 32P labeled HCV 5′NTR RNA transcript was incubated either with various concentrations of PNA-glucosamine conjugate complementary to sequence 352-338 in domain IV of the 5′NTR or (B) scramble PNA-glucosamine conjugate. Binding of the PNA-glucosamine conjugate (PNAHCV 352-338) to its target sequence was evaluated by gel electrophoretic mobility shift analysis (EMSA). Lane 1, control without PNA conjugate; lane 2, 10 nM of PNA conjugate; lane 3, 15 nM of PNA conjugate; lane 4, 20 nM of conjugate, lane 5, 25 nM of conjugate.\nTarget specificity of antisense PNA: Using a PNA-glucosamine conjugate targeted to the translation initiation window (352-338: […]) in Domain IV of HCV 5′NTR, we have shown that it has great specificity for the targeted sequence. The PNA-glucosamine conjugate ([…]) forms a tight complex with HCV RNA at a stoichiometric ratio (FIG. 10)."}, "[1]": {"tested_on": "HCV subgenomic replicons in MH14 cells", "assay": "Inhibition of viral translation and replication in MH14 cells carrying HCV subgenomic replicons", "assay_type": "cell-based"}}}
{"substance": "PNAHCV353-338: PNA-glucosamine conjugate targeted to the translation initiation window (352-338: TTCGTGCTCATGGTG) in Domain IV of HCV 5'NTR (all peptide nucleic acid (PNA); glucosamine conjugate attached)", "values": [{"measurement": "gel retardation of the labeled RNA", "setting": "HCV 5'NTR RNA; 1:0.5 ratio of target RNA to PNA conjugate", "result": 50, "unit": "%"}, {"measurement": "gel retardation of the labeled RNA", "setting": "HCV 5'NTR RNA; 1:0.75 ratio of target RNA to PNA conjugate", "result": 75, "unit": "%"}, {"measurement": "gel shift of the target RNA", "setting": "HCV 5'NTR RNA; stoichiometric ratios of 1:1 or greater", "result": "complete gel shift"}, {"measurement": "HCV translation (viral protein NS5B, Western blot)", "setting": "[1]; 72 h, 50, 100 and 200 nM conjugate (FIG. 13A)", "result": "efficiently blocked at a subnanomolar concentration"}, {"measurement": "HCV replication (viral RNA, RT PCR)", "setting": "[1]; 72 h, 50, 100 and 200 nM conjugate (FIG. 13B)", "result": "efficiently blocked at a subnanomolar concentration"}]}
